{"source": "patent US20230129137A1", "about": "“USE OF TT-10-LOADED NANOPARTICLES FOR CARDIAC REPAIR” (THE UAB RESEARCH FOUNDATION, priority 2021, published 2023)", "key": {"hiPSC-CMs [1]": {"system": "hiPSC-CMs", "assay": "apoptosis of hiPSC-CMs by TUNEL staining", "format": "cell-based, human", "conditions": "10 μM TT-10", "protocol": "(§1) FIGS. 2A-2B show TT-10 enhanced survival and nuclear Yap levels in cultured hiPSC-CMs. (FIG. 2A) Apoptosis was evaluated via TUNEL staining and quantified as the percentage of TUNEL-positive cells. (FIG. 2B) hiPSC-CMs were immunofluorescently costained for Yap, and the proportion of cells with Yap-positive nuclei is presented as a percentage. Scale bar: 20 μm. All experiments were repeated 5 times. *P<0.01, Student's t test.\n(§2) The effect of TT-10 (FIG. 1A) on cardiomyocyte cell cycle activity and proliferation was determined by culturing human induced pluripotent stem cell-derived cardiomyocytes (hiPSC-CMs) in varying concentrations of TT-10 (0, 2 μM, 10 μM, 20 μM or 100 μM) for 48 hours and then evaluating the presence of markers for cell proliferation (Ki67 expression, FIG. 1B), S phase (BrdU incorporation, FIG. 1C), and M phase (histone 3 phosphorylation [PH3], FIG. 1D) of the cell cycle and for cytokinesis (Aurora B, FIG. 1E). […] The effect of TT-10 on YAP pathway activity was also evaluated via Western blot (FIG. 7): total Yap levels in hiPSC-CMs treated with or without TT-10 were similar, but phosphorylated Yap (p-Yap) was less abundant in TT-10-treated cells.\nTUNEL. TUNEL staining was performed with an in situ cell death detection kit (Roche). […] Apoptosis was quantified as the proportion of cells that were TUNEL positive."}, "hiPSC-CMs [2]": {"system": "hiPSC-CMs", "assay": "cell cycle activity and proliferation markers in cultured hiPSC-CMs (immunofluorescence)", "format": "cell-based, human", "conditions": "TT-10 0, 2, 10, 20 or 100 μM, 48 hours", "protocol": "FIGS. 1A-1E show TT-10 increased cell cycle activity and proliferation in cultured human pluripotent stem sell derived cardiomyocytes (hiPSC-CMs). (FIG. 1A) TT-10 (C11H10FN3OS2; molecular weight, 283.34 Da) contains 4 C═C, 1 C═N, and 1 C═O double bond. Maximum UV/Vis absorbance is approximately 200 nm. (FIGS. 1B-1E) hiPSC-CMs were cultured under standard conditions (—) or treated with varying concentrations of TT-10 (2 μM, 10 μM, 20 μM, or 100 μM) for 48 hours and immunofluorescently stained for the human isoform of cardiac troponin T (hcTnT). Nuclei were identified by staining with 4′,6′-diamidinio-2-phenylindole (DAPI) or with DAPI and Nkx2.5 antibodies. (FIG. 1B) Proliferation was evaluated via immunofluorescence costaining for antigen KI 67 (Ki67) and quantified as the percentage of Ki67-positive cells. (FIG. 1C) hiPSC-CMs in the S phase of the cell cycle were identified via immunofluorescence costaining for bromodeoxyuridine (BrdU) incorporation and quantified as the percentage of BrdU-positive cells. (FIG. 1D) hiPSC-CMs in the M phase of the cell cycle were identified via immunofluorescence costaining for histone 3 phosphorylation (PH3) and quantified as the percentage of PH3-positive cells. (FIG. 1E) hiPSC-CMs undergoing cytokinesis were identified via immunofluorescence costaining for Aurora B (AuB) and quantified as the percentage of AuB-positive cells. Scale bar: 20 μm. All experiments were repeated 5 times. […], 1-way ANOVA with Tukey's correction.\nFIGS. 8A-8B show TT-10-NPs promoted proliferation in cultured hiPSC-CMs. hiPSC-CMs were cultured for 48 hours with or without 1 mg/mL coumarin-6-loaded TT-10-NPs (green); then, the cells were immunofluorescently stained for the human isoform of cardiac troponin I (hcTnI, gray), and nuclei were identified via DAPI staining (blue). Internalized NPs are identified with an arrow. Scale bar: 20 μm. (FIG. 8A) Proliferation was evaluated via immunofluorescence costaining for Ki67 and quantified as the percentage of Ki67-positive cells. (FIG. 8B) hiPSC-CMs in the M-phase of the cell cycle were identified via immunofluorescence costaining for PH3 and quantified as the percentage of PH3-positive cells. *P<0.01, Student's t-test; n=5 experiments.\nThe effect of TT-10 (FIG. 1A) on cardiomyocyte cell cycle activity and proliferation was determined by culturing human induced pluripotent stem cell-derived cardiomyocytes (hiPSC-CMs) in varying concentrations of TT-10 (0, 2 μM, 10 μM, 20 μM or 100 μM) for 48 hours and then evaluating the presence of markers for cell proliferation (Ki67 expression, FIG. 1B), S phase (BrdU incorporation, FIG. 1C), and M phase (histone 3 phosphorylation [PH3], FIG. 1D) of the cell cycle and for cytokinesis (Aurora B, FIG. 1E). […]"}, "mouse MI": {"system": "mouse MI", "conditions": "intraperitoneal injections of TT-10, mice after MI; cited from earlier work"}, "cardiomyocytes": {"system": "cardiomyocytes", "conditions": "cited from earlier work"}, "Yap": {"system": "Yap", "assay": "nuclear Yap in hiPSC-CMs (immunofluorescence)", "format": "cell-based, human", "conditions": "10 μM TT-10", "protocol": "as §1, §2\nImmunofluorescence. […] After staining, analyses were conducted with a fluorescence microscope."}, "YAP signaling pathway": {"system": "YAP signaling pathway", "assay": "YAP and phosphorylated YAP abundance by Western blot in hiPSC-CMs", "format": "cell-based, human", "conditions": "10 μM TT-10, 48 hours, with vs without TT-10", "protocol": "as §2\nWestern blot. hiPSC-CMs were lysed with M-PER Mammalian Protein Extraction Reagent (Thermo Fisher Scientific) supplemented with Halt Protease and Phosphatase Inhibitor Cocktail (Thermo Fisher Scientific). Extracted protein was quantified by BCA protein assay kit (Thermo Fisher Scientific) and denatured by heating at 95° C. for 10 minutes. Equal quantity of protein were loaded and separated by 4%-15% precast SDS-PAGE gels (Bio-Rad), and then transferred onto a polyvinylidene difluoride membrane (Bio-Rad). […] Protein signals were imaged with a Bio-Rad ChemiDoc System and analyzed by ImageJ. […]"}}, "note": "Entries after “also recorded” stand apart in the source; their conditions may differ."}
{"compound": "C=CCNc1nc(N)c(C(=O)c2ccc(F)s2)s1", "note": "[TT-10, (2-(allylamino)-4-aminothiazol-5-yl)(5-fluorothiophen-2-yl)methanone]", "values": [{"measurement": "hiPSC-CM apoptosis (TUNEL staining)", "setting": "hiPSC-CMs [1]", "result": "significantly reduced"}, {"measurement": "proportion of cells displaying Aurora B (cytokinesis)", "setting": "hiPSC-CMs [2]", "result": "peaked at 10 to 20 μM TT-10"}, {"measurement": "proportion of cells displaying BrdU incorporation (S phase)", "setting": "hiPSC-CMs [2]", "result": "peaked at 10 to 20 μM TT-10"}, {"measurement": "proportion of cells displaying Ki67 (cell proliferation)", "setting": "hiPSC-CMs [2]", "result": "peaked at 10 to 20 μM TT-10"}, {"measurement": "proportion of cells displaying histone 3 phosphorylation PH3 (M phase)", "setting": "hiPSC-CMs [2]", "result": "peaked at 10 to 20 μM TT-10"}, {"measurement": "cardiac function at later time points", "setting": "mouse MI", "result": "did not prevent progressive declines"}, {"measurement": "cardiomyocyte cell cycle activity", "setting": "mouse MI", "result": "promoted"}, {"measurement": "infarct size", "setting": "mouse MI", "result": "declines in infarct size; also recorded: reduced"}, {"measurement": "measures of cardiac function vs delivery vehicle", "setting": "mouse MI", "result": "significantly better"}, {"measurement": "cardiomyocyte survival and proliferation", "setting": "cardiomyocytes", "result": "promoted"}, {"measurement": "proportion of hiPSC-CMs with Yap-positive nuclei", "setting": "Yap", "result": "significantly increased"}, {"measurement": "phosphorylated Yap (p-Yap) abundance (Western blot)", "setting": "YAP signaling pathway", "result": "less abundant"}, {"measurement": "total Yap levels (Western blot)", "setting": "YAP signaling pathway", "result": "similar"}]}
